Our source for the efflux ratio and Papp A→B values is US12410163B2, “Compounds as GLP-IR agonists” (Terns Pharmaceuticals, Inc., priority 2022, dated 2025).

The data set in a line: Passive permeability and efflux ratio (Caco-2). In kind it is in vitro ADME. To be noted: human; for efflux ratio at 120 min, 5 μM: pH 7.4, Caco-2, efflux ratio = Papp (B-to-A)/Papp (A-to-B), read-out: ER; for Papp A→B at 120 min, 5 μM: Caco-2, 5 μM, pH 7.4, 120 minutes. The protocol: Caco-2 cells (clone C2BBe1) are obtained, e.g., from American Type Culture Collection (Manassas, VA). Cell monolayers are grown to confluence on collagen-coated, microporous membranes in 12-well assay plates. The permeability assay buffer is Hanks' balanced salt solution containing 10 mM HEPES and 15 mM glucose at a pH of 7.4. The buffer in the receiver chamber also contains 1% bovine serum albumin. The dosing solution concentration is 5 μM of test article in the assay buffer. Cell monolayers are dosed on the apical side (A-to-B) or basolateral side (B-to-A) and incubated at 37° C. with 5% CO2 in a humidified incubator. Samples are taken from the donor and receiver chambers at 120 minutes. Each determination is performed in duplicate. The flux of lucifer yellow is also measured post-experimentally for each monolayer to ensure no damage is inflicted to the cell monolayers during the flux period. All samples are assayed by LC-MS/MS using electrospray ionization. The apparent permeability (Papp) and percent recovery were calculated as follows: Papp=(dCr/dt)×Vr/(A×CA) (1) Percent Recovery=100×((Vr×Cr^final)+(Vd×Cd^final))/(Vd×CN) (2), where, dCr/dt is the slope of the cumulative receiver concentration versus time in μM s^−1; Vr is the volume of the receiver compartment in cm^3; Vd is the volume of the donor compartment in cm^3; A is the area of the insert (1.13 cm^2 for 12-well); CA is the average of the nominal dosing concentration and the measured 120-minute donor concentration in μM; CN is the nominal concentration of the dosing solution in μM; Cr^final is the cumulative receiver concentration in μM at the end of the incubation period; Cd^final is the concentration of the donor in μM at the end of the incubation period. Efflux ratio (ER) is defined as Papp (B-to-A)/Papp (A-to-B). Rat Pharmacokinetics
Caco-2 cells (clone C2BBe1) were obtained from American Type Culture Collection (Manassas, VA). Cell monolayers were grown to confluence on collagen-coated, microporous membranes in 12-well assay plates. Details of the plates and their certification are shown below. The permeability assay buffer was Hanks' balanced salt solution containing 10 mM HEPES and 15 mM glucose at a pH of 7.4. The buffer in the receiver chamber also contained 1% bovine serum albumin. The dosing solution concentration was 5 μM of test article in the assay buffer. Cell monolayers were dosed on the apical side (A-to-B) or basolateral side (B-to-A) and incubated at 37° C. with 5% CO2 in a humidified incubator. Samples were taken from the donor and receiver chambers at 120 minutes. Each determination was performed in duplicate. The flux of lucifer yellow was also measured post-experimentally for each monolayer to ensure no damage was inflicted to the cell monolayers during the flux period. All samples were assayed by LC-MS/MS using electrospray ionization. The apparent permeability (Papp) and percent recovery were calculated as follows: Papp=(dCr/dt)×Vr/(A×CA) (1) Percent Recovery=100×((Vr×Cr^final)+(Vd×Cd^final))/(Vd×CN) (2), where, dCr/dt is the slope of the cumulative receiver concentration versus time in μM s^−1; Vr is the volume of the receiver compartment in cm^3; Vd is the volume of the donor compartment in cm^3; A is the area of the insert (1.13 cm^2 for 12-well); CA is the average of the nominal dosing concentration and the measured 120-minute donor concentration in μM; CN is the nominal concentration of the dosing solution in μM; Cr^final is the cumulative receiver concentration in μM at the end of the incubation period; Cd^final is the concentration of the donor in μM at the end of the incubation period. Efflux ratio (ER) is defined as Papp (B-to-A)/Papp (A-to-B).

In general, Papp A→B refers to the apparent permeability from the apical to the basolateral side of a cell layer. For `N#Cc1ccc(COc2cccc(N3CCN(Cc4nc5ccc(C(=O)O)cc5n4Cc4cncs4)[C@@H]4C[C@@H]43)n2)c(F)c1` (single isomer, unassigned) [Compound 1, 2-((5-(6-((4-cyano-2-fluorobenzyl)oxy)pyridin-2-yl)-2,5-diazabicyclo[4.1.0]heptan-2-yl)methyl)-1-(thiazol-5-ylmethyl)-1H-benzo[d]imidazole-6-carboxylic Acid], the efflux ratio at 120 min, 5 μM is 2.51 and the Papp A→B at 120 min, 5 μM was found to be 15 ×10⁻⁶ cm/s.
For `CC1(c2ccc(C#N)cc2F)Oc2cccc(N3CCN(Cc4nc5ccc(C(=O)O)cc5n4CC4(C#N)CC4)C4CC43)c2O1` (centres unmarked) [Compound 40, 2-((5-(2-(4-Cyano-2-fluorophenyl)-2-methylbenzo[d][1,3]dioxol-4-yl)-2,5-diazabicyclo[4.1.0]heptan-2-yl)methyl)-1-((1-cyanocyclopropyl)methyl)-1H-benzo[d]imidazole-6-carboxylic Acid], in that order: 2.27 and 17.5 ×10⁻⁶ cm/s.
For `N#Cc1ccc(COc2cccc([C@@H]3CCN(Cc4nc5ccc(C(=O)O)cc5n4Cc4cncs4)[C@@H]4C[C@@H]43)n2)c(F)c1` (single isomer, unassigned) [Compound 5, 2-((5-(6-((4-Cyano-2-fluorobenzyl)oxy)pyridin-2-yl)-2-azabicyclo[4.1.0]heptan-2-yl)methyl)-1-(thiazol-5-ylmethyl)-1H-benzo[d]imidazole-6-carboxylic Acid], in that order: 1.71 and 27.9 ×10⁻⁶ cm/s.
In the same order, the values of `CC1(c2ccc(C#N)cc2F)Oc2cccc(C3CCN(Cc4nc5ccc(C(=O)O)cc5n4Cc4cncs4)CC3)c2O1` (centres unmarked) [Compound 18] are 1.31 and 16.8 ×10⁻⁶ cm/s.
